Entries after “also recorded” stand apart in the source; their conditions may differ.
Tests used:
[1] = tested on: DTH reaction mounted against OXA (pinna thickness); assay: Skin DTH response to OXA challenge, hormones given at sensitization (immunization) phase; type: in vivo, rat; conditions: hormone ip 2 h before sensitization with 1.5% OXA: epinephrine 0.5 mg/kg, corticosterone 5 mg/kg, or both; OXA ear challenge six days after immunization
Procedure: (§1) Young adult, male Sprague Dawley rats (150-300 g) (Harlan Sprague Dawley, Indianapolis, Ind.) were housed in plastic cages in the accredited (American Association of Accreditation of Laboratory Animal Care) animal facilities of The Rockefeller University (New York, N.Y.). The animal room was maintained on a 12 h light-dark cycle (lights on 7 am). Animals were given rat chow and water ad libitum.
This was necessary for restoring important permissive functions of corticosterone which are lost following ADX (18-20). […] Unlike constant replacement (via pellets or osmotic pumps), drinking water corticosterone also facilitates the normal termination of a stress-induced ACTH response (22, 23), and simulates the circadian corticosterone rhythm as animals drink at the beginning of the active period (16).
No anesthesia was used subsequently. An area of approximately 3×4 cm was shaved on the dorsum. The thickness of both pinnae was recorded using a constant-loading dial micrometer (Mitutoyo, Japan).
On day 5, baseline pinna thickness was measured. […] Left pinnae were treated with vehicle.
The immune reaction induced using the above procedure, is characterized by swelling at the site of challenge, and by an infiltration of monocytes/macrophages and lymphocytes into the epidermis and dermis (29-31). […]

[2] = tested on: skin DTH, DNFB challenge (pinna thickness); assay: Skin DTH response, hormones given before DNFB challenge of previously sensitized animals; type: in vivo, rat
Procedure: as §1
(§2) Bilateral adrenalectomy (ADX) was performed using standard aseptic surgical techniques on animals fully anesthetized with the inhalant, methoxyflurane (Metofane; Pitman-Moore, Washington Crossing, N.J.). Sham adrenalectomized (SHAM) animals went through exactly the same procedure as ADX animals except that their adrenals were not removed. ADX animals were maintained on a low normalizing dose of corticosterone (20 μg/ml) administered through drinking choice of water or 3% saline. This was necessary for restoring important permissive functions of corticosterone which are lost following ADX (18-20). […] Unlike constant replacement (via pellets or osmotic pumps), drinking water corticosterone also facilitates the normal termination of a stress-induced ACTH response (22, 23), and simulates the circadian corticosterone rhythm as animals drink at the beginning of the active period (16).
The concentration and timing of each hormone administered is listed in the text and 3 0 figures. […] Epinephrine (Research Biochemicals International) was dissolved in sterile water.
DTH was induced by challenging the pinnae of previously sensitized rats with 2,4-dinitro-1-fluorobenzene (DNFB, Sigma, St. Louis, Mo.) or oxazalone (OXA, Sigma, St. Louis, Mo). On day 1 of sensitization, animals were anesthetized with the inhalant, methoxyflurane (Metofane; Pitman-Moore, Washington Crossing, N.J.). No anesthesia was used subsequently. An area of approximately 3×4 cm was shaved on the dorsum. The thickness of both pinnae was recorded using a constant-loading dial micrometer (Mitutoyo, Japan). On days 1 and 2 of sensitization, one hundred microliters of DNFB (1% (w/v) in 4:1, acetone:olive oil) or one hundred microliters of OXA (1.5% (w/v) in ethanol) were applied to the shaved dorsum. On day 5, baseline pinna thickness was measured. On day 6, after stress or hormone administration, the dorsal surface of the right pinnae of all animals was challenged with 50 μl of DNFB (0.5% in 4:1 acetone:olive oil) or OXA (0.75% in ethanol). Left pinnae were treated with vehicle. Pinna thickness was measured at the times shown. Measurements were made (on same relative region of pinna) gently and rapidly to avoid displacing or compressing edema fluid and changing pinna thickness.
The immune reaction induced using the above procedure, is characterized by swelling at the site of challenge, and by an infiltration of monocytes/macrophages and lymphocytes into the epidermis and dermis (29-31). A positive correlation between the intensity of the immune reaction and the increase in pinna thickness has been reported (32, 33). This model for skin DTH reactions has been widely used to monitor cell-mediated immune responses in vivo (30, 34).
For all experiments, repeated measures were made on each animal. Significant differences between timepoints within a specific leukocyte subpopulation were analyzed using the Student's t-test as a test for significant differences between means. […] Data are expressed as mean ±SEM in all figures. A computer statistics package was used for statistical analyses (SYSTAT v5.2.1, Systat Inc., Evanston, Ill.).

[3] = tested on: skin DTH, OXA challenge (pinna thickness); assay: Skin DTH response, hormones given before OXA challenge of previously sensitized ADX animals; type: in vivo, rat; conditions: for skin DTH vs vehicle: epinephrine 0.5 mg/kg, corticosterone 5 mg/kg, or both, OXA (0.75%) challenge 2 h after hormone administration
Procedure: as §1, §2
The concentration and timing of each hormone administered is listed in the text and 3 0 figures. […]
DTH was induced by challenging the pinnae of previously sensitized rats with 2,4-dinitro-1-fluorobenzene (DNFB, Sigma, St. Louis, Mo.) or oxazalone (OXA, Sigma, St. Louis, Mo). […] The thickness of both pinnae was recorded using a constant-loading dial micrometer (Mitutoyo, Japan). […] On day 5, baseline pinna thickness was measured. […] Pinna thickness was measured at the times shown. […]
For all experiments, repeated measures were made on each animal. Significant differences between timepoints within a specific leukocyte subpopulation were analyzed using the Student's t-test as a test for significant differences between means. […] Data are expressed as mean ±SEM in all figures. […]

[4] = tested on: lymphocytes in cervical lymph nodes; assay: Cellularity of cervical lymph nodes draining the site of the skin DTH reaction; type: in vivo, rat; conditions: ADX animals, epinephrine 0.5 mg/kg, corticosterone 5 mg/kg, or both, OXA challenge 2 h after administration, 48 h after antigen exposure
Procedure: Animals were rapidly sacrificed and cervical lymph nodes were dissected and placed in sterile PBS on ice (n=3 per treatment group). Each lymph node was subsequently weighed and disrupted between the frosted ends of two microscope slides. Suspensions of leukocytes were prepared in PBS and stored on ice for cell counting, immunofluorescent staining, and flow cytometry. White blood cell counts and lymphocyte-neutrophil differentials were obtained on a hematology analyzer (F800, Sysmex, McGraw Park, Ill.). Specific leukocyte subtypes were measured by immunofluorescent antibody staining and subsequent analysis using three color flow cytometry (FACScan, Becton Dickinson, San Jose, Calif.). T cells were identified using the following monoclonal antibodies (Caltag, Burlingame, Calif.): CD3-FITC (1F4), CD4-PE (w3/25), CD8-TC (OX8). Briefly, cell suspensions were incubated with antibody for 20 min at room temperature, washed with PBS, and read on the FACScan with 3,000 to 5,000 events being acquired from each preparation. Appropriate isotype controls were used to set the negative criteria. Data were analyzed using Cell Quest software (Becton Dickinson, San Jose, Calif.). For all experiments, repeated measures were made on each animal. Significant differences between timepoints within a specific leukocyte subpopulation were analyzed using the Student's t-test as a test for significant differences between means. […] Data are expressed as mean ±SEM in all figures. A computer statistics package was used for statistical analyses (SYSTAT v5.2.1, Systat Inc., Evanston, Ill.).

[5] = target: T1, corticosteroid binding globulin (Homo sapiens, UniProt P08185); conditions: plasma protein; cited from earlier work
T1 sequence (P08185 23-405): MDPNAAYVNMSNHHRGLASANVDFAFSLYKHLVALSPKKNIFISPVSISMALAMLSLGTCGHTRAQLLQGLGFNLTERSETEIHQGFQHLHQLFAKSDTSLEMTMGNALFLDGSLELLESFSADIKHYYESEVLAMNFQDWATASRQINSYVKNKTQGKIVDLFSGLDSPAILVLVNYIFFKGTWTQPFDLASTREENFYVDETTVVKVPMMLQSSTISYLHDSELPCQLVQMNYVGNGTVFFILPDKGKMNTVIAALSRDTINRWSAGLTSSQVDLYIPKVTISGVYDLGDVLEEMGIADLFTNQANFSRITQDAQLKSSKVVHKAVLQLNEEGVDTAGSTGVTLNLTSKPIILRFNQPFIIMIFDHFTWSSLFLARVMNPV

SMILES	DTH response (immune reaction at challenge or recall phase) vs vehicle [1]	skin DTH vs vehicle ([2]; corticosterone 400 μg/ml in drinking water, chronic (6 days), DNFB challenge)	skin DTH vs vehicle ([2]; corticosterone 400 μg/ml in drinking water, chronic (6 days), DNFB challenge, listed as Corticosterone)	skin DTH vs vehicle ([2]; corticosterone 5 mg/kg ip, acute, ADX animals, DNFB challenge two hours after administration)	skin DTH vs vehicle ([2]; corticosterone 5 mg/kg ip, acute, ADX animals, DNFB challenge two hours after administration, listed as Corticosterone)	skin DTH vs vehicle ([2]; corticosterone 100 or 400 μg/ml in drinking water for four hours (acute), adrenal-intact animals, DNFB challenge)	skin DTH vs vehicle ([2]; corticosterone 100 or 400 μg/ml in drinking water for four hours (acute), adrenal-intact animals, DNFB challenge, listed as Corticosterone)	skin DTH vs vehicle ([2]; corticosterone high dose 40 mg/kg, acute, ADX animals, DNFB challenge)	skin DTH vs vehicle ([2]; corticosterone high dose 40 mg/kg, acute, ADX animals, DNFB challenge, listed as Corticosterone)	immuno-enhancement of skin DTH compared with epinephrine ([3]; corticosterone 5 mg/kg vs epinephrine 500 μg/kg, OXA challenge 2 h after administration)	skin DTH vs vehicle [3]	lymphocyte numbers in cervical lymph nodes vs vehicle [4]	binding to corticosteroid binding globulin [5]	skin DTH vs vehicle ([2]; epinephrine 0.05, 0.25, 0.5 mg/kg, acute, ADX animals, DNFB challenge two hours after administration)	skin DTH vs vehicle ([2]; epinephrine 0.05, 0.25, 0.5 mg/kg, acute, ADX animals, DNFB challenge two hours after administration, listed as Epinephrine)	lymphocyte numbers in cervical lymph nodes vs vehicle ([4]; listed as Epinephrine)
C[C@]12C[C@H](O)[C@H]3[C@@H](CCC4=CC(=O)CC[C@@]43C)[C@@H]1CC[C@@H]2C(=O)CO [corticosterone]	enhance the immune reaction observed during the challenge or recall phase of DTH	significantly suppressed skin DTH	lower DTH responses than control animals	significant enhancement of skin DTH	significantly larger DTH response than vehicle treated animals	significant enhancement of skin DTH; also recorded: enhanced the DTH response	significantly larger DTH response than vehicle treated animals	significantly suppressed skin DTH	lower DTH responses than control animals	greater than that induced by epinephrine	enhanced skin DTH; also recorded: enhanced DTH response	significantly larger numbers of lymphocytes in cervical lymph nodes; also recorded: higher lymphocyte numbers in cervical lymph nodes	binds a large proportion of circulating corticosterone			
CNC[C@H](O)c1ccc(O)c(O)c1 [epinephrine, reference compound]	enhance the immune reaction observed during the challenge or recall phase of DTH										enhanced skin DTH; also recorded: enhanced DTH response	significantly larger numbers of lymphocytes in cervical lymph nodes		significant dose-dependent enhancement of skin DTH	dose dependent increase in skin DTH	higher lymphocyte numbers in cervical lymph nodes
